As usually defined, the pIC50 is the negative decadic logarithm of the IC50, by convention in mol/L. Read a high pIC50 as a low IC50.

pIC50: −log10 of the molar value. Values joined by “and” are separate entries in the source; they are usually repeats but may differ in a detail not shown here. Equal values may be shown once.

Experimental findings from the Kinase Knowledgebase extract (Sharma et al. 2016) are described below.

The subject of test [1] is MAPK14 (rat). The test can be described thus: Pharmacokinetic Studies.
Test [2] deals with MAPK14 (human) (UniProt Q16539). As to the kind of experiment: TNF-alpha Inhibition. As to conditions: thp1.
Test [3] relates to MAPK14 (Lewis rat). As to the kind of experiment: p38 Inhibition (SCW-Induced Arthritis Model).
Test [4] has as its target MAPK14 (mouse). The test can be described thus: p38 Inhibition.
Test [5] deals with MAPK14 (Balb/c mice). The test can be described thus: TNF-alpha Inhibition (in vivo).

Chain of MAPK14 (human) (Q16539 whole entry, looked up): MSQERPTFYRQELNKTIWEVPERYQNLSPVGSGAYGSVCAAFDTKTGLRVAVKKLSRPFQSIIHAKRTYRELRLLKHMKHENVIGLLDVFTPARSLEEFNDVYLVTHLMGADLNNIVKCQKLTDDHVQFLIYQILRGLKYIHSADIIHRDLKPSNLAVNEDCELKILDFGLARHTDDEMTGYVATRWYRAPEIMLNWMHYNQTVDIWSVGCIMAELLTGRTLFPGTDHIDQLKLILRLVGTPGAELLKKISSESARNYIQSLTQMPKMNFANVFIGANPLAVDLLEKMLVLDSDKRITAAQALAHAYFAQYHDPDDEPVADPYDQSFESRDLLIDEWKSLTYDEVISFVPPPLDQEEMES

The compound `CN1CCN(C(=O)[C@]2(C)CO[C@@H](c3nc(-c4ccc(F)cc4)c(-c4ccnc(NCC5CC5)n4)[nH]3)OC2)CC1` displayed an AUC in test [1] of 541 ng·h/mL. This compound gave a bioavailability in test [1] (dose or concentration not given here) of 20%. In test [2], the negative logarithm of the IC50 (pIC50) is 8.70. Also, the score in test [3] is 40 and 34 and 25.
As to `C=CCNc1nccc(-c2[nH]c([C@H]3OC[C@@](C)(C(=O)NCCOC)CO3)nc2-c2ccc(F)cc2)n1`, the AUC in test [1] was determined as 169 ng·h/mL. In test [2], this compound had a pIC50 of 7.14.
Taken in the same sequence, the figures for `CN(C)C(=O)[C@]1(C)CO[C@@H](c2nc(-c3ccc(F)cc3)c(-c3ccnc(NCC4CC4)n3)[nH]2)OC1` were 276 ng·h/mL and 9.70.
`CCCNC(=O)[C@]1(C)CO[C@@H](c2nc(-c3ccc(F)cc3)c(-c3ccnc(NCCCOC)n3)[nH]2)OC1` gave an AUC in test [1] of 738 ng·h/mL. The compound further had a pIC50 in test [2] of 8.46.
On to `C[C@]1(C(=O)N2CCOCC2)CO[C@H](c2nc(-c3ccc(F)cc3)c(-c3ccncc3)[nH]2)OC1`, for which, in test [4], the pIC50 was 3.96. The ED50 entry in test [5] is listed as “Between 3 to 10 mg kg-1”. Further, in test [1], the AUC is 247 ng·h/mL and 628 ng·h/mL; the Cp amounted to 277 ng/mL. The pIC50 in test [2] is 7.22.
In turn, `CN(C)C(=O)[C@]1(C)CO[C@@H](c2nc(-c3ccc(F)cc3)c(-c3ccnc(NCc4ccccn4)n3)[nH]2)OC1` registered an AUC in test [1] of 529 ng·h/mL. For the same compound, in test [2], the pIC50 was 8.05.
With `CCCNC(=O)[C@]1(C)CO[C@@H](c2nc(-c3ccc(F)cc3)c(-c3ccnc(NCc4ccco4)n3)[nH]2)OC1`, the AUC in test [1] was 257 ng·h/mL. The same compound showed a pIC50 in test [2] of 8.52.
In turn, `COCCNc1nccc(-c2[nH]c([C@H]3OC[C@@](C)(C(=O)NCC4CC4)CO3)nc2-c2ccc(F)cc2)n1` returned an AUC in test [1] of 121 ng·h/mL.
The compound `C[C@@H]1C[C@H]2[C@@H]3CCC4=CC(=O)C=C[C@]4(C)[C@@]3(F)[C@@H](O)C[C@]2(C)[C@@]1(O)C(=O)CO` yielded a score in test [3] of 22.5.
In the case of `CC(C)NC(=O)[C@]1(C)CO[C@@H](c2nc(-c3ccc(F)cc3)c(-c3ccnc(NCC4CC4)n3)[nH]2)OC1`, in test [1], the AUC came out at 412 ng·h/mL.
As for `COCCCNc1nccc(-c2[nH]c([C@H]3OC[C@@](C)(C(=O)NCCOC)CO3)nc2-c2ccc(F)cc2)n1`, the AUC in test [1] came to 138 ng·h/mL. This compound had a negative-log IC50 (pIC50) in test [2] of 7.15.
For the compound `C[C@]1(C(=O)NC2CC2)CO[C@H](c2nc(-c3ccc(F)cc3)c(-c3ccnc(NCC4CC4)n3)[nH]2)OC1`, the AUC in test [1] was determined as 288 ng·h/mL.
